These compounds were tested against T1, sGC (Rattus norvegicus, UniProt P20595) (assay: Action at a recombinant guanylate cyclase reporter cell line (CHO reporter cell)). Details: CHO reporter cell in vitro.
T1 construct: expressed in transfected cells; host or cells: CHO reporter cell
Type: cell-based
Method: The cellular action of the compounds according to the invention is determined at a recombinant guanylate cyclase reporter cell line, as described in F. Wunder et al., Anal. Biochem. 339, 104-112 (2005).

T1 sequence (P19686 whole entry partner): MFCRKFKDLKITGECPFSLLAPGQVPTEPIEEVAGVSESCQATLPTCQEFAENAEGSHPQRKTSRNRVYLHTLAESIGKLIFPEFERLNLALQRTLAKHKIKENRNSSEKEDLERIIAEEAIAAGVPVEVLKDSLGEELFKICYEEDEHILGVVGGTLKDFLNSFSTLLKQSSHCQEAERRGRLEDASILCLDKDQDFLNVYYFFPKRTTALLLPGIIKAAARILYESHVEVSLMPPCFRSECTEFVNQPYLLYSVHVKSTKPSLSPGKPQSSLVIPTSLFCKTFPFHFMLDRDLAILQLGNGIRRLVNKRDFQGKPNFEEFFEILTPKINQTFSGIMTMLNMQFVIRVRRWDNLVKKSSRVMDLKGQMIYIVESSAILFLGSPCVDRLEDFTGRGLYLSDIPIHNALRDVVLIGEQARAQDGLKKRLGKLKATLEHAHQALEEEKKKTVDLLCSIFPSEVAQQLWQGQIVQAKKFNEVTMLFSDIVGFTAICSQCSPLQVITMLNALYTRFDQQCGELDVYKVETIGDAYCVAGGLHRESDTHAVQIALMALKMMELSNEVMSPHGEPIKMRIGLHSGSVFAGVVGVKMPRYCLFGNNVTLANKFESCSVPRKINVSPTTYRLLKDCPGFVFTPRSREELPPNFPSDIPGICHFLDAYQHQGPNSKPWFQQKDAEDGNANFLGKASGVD
T1 sequence (P20595 whole entry): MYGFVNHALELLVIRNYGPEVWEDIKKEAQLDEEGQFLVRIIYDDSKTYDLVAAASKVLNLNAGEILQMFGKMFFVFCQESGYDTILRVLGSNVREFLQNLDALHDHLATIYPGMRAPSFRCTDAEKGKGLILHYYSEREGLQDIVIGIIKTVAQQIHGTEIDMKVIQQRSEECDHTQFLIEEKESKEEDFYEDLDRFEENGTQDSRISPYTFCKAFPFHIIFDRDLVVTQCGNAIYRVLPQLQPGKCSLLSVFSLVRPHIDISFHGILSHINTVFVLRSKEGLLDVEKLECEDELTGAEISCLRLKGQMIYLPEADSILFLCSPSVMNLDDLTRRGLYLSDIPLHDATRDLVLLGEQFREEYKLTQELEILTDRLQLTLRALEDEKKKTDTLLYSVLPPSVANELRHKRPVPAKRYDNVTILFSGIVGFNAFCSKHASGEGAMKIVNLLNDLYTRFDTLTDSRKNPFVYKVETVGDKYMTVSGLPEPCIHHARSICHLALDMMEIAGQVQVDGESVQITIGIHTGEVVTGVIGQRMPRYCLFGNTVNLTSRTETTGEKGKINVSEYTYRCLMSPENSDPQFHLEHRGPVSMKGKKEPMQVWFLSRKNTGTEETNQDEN

MEC (minimum effective concentration), sGC-activating activity in the CHO reporter cell [nM]	SMILES
10	C[C@H]([C@H](C(=O)Nc1c(Cl)ccc(CC2(C(=O)O)CC2)c1F)c1ccc(Cl)cc1)C(F)(F)F [Example 52, 1-(4-Chloro-3-{[(2S,3R)-2-(4-chlorophenyl)-4,4,4-trifluoro-3-methylbutanoyl]amino}-2-fluorobenzyl)cyclopropanecarboxylic acid]
0.3	C=Cc1ccc([C@@H](C(=O)Nc2cc(CC3(C(=O)O)CC3)ccc2F)[C@@H](C)C(F)(F)F)cc1 [Example 63, (+)-1-(4-Fluoro-3-{[(2S,3R)-4,4,4-trifluoro-3-methyl-2-(4-vinylphenyl)butanoyl]amino}benzyl)-cyclopropanecarboxylic acid]
3	C[C@H]([C@H](C(=O)Nc1cc(CC2(C(=O)O)CC2(F)F)ccc1Cl)c1ccc(Cl)cc1)C(F)(F)F (stereo partly drawn) [Example 69, 1-(4-Chloro-3-{[(2S,3R)-2-(4-chlorophenyl)-4,4,4-trifluoro-3-methylbutanoyl]amino}benzyl)-2,2-difluorocyclopropanecarboxylic acid]
10	C[C@H]([C@H](C(=O)Nc1cc(CC2(C(=O)O)CC2)ccc1C1CC1)c1ccc(Cl)cc1)C(F)(F)F [Example 97, 1-(3-{[(2S,3R)-2-(4-chlorophenyl)-4,4,4-trifluoro-3-methylbutanoyl]amino}-4-cyclopropyl-benzyl)cyclopropanecarboxylic acid]
0.3	CCC(c1ccc(Cl)c(NC(=O)[C@H](c2ccc(Cl)cc2)[C@@H](C)C(F)(F)F)c1)C1(C(=O)O)CC1 (stereo partly drawn) [Example 98, 1-[1-(4-Chloro-3-{[(2S,3R)-2-(4-chlorophenyl)-4,4,4-trifluoro-3-methylbutanoyl]amino}phenyl)-propyl]cyclopropanecarboxylic acid]
30	C[C@H]([C@H](C(=O)Nc1cc(C(C)(O)C2(C(=O)O)CC2)ccc1Cl)c1ccc(Cl)cc1)C(F)(F)F (stereo partly drawn) [Example 111, 1-[1-(4-chloro-3-{[(2S,3R)-2-(4-chlorophenyl)-4,4,4-trifluoro-3-methylbutanoyl]amino}phenyl)-1-hydroxyethyl]cyclopropanecarboxylic acid]

— patent US9018258B2, “Substituted 1-benzylcycloalkylcarboxylic acids and the use thereof” (Bayer Intellectual Property GmbH, priority 2010, dated 2015)
